Source: BindingDB's records for doi:10.3109/14756360903389864 (Quaid-I-Azam University, 2010)

target: Urease (Canavalia ensiformis, UniProt P07374); assay: Urease Inhibition Assay
Sequence (P07374 whole entry): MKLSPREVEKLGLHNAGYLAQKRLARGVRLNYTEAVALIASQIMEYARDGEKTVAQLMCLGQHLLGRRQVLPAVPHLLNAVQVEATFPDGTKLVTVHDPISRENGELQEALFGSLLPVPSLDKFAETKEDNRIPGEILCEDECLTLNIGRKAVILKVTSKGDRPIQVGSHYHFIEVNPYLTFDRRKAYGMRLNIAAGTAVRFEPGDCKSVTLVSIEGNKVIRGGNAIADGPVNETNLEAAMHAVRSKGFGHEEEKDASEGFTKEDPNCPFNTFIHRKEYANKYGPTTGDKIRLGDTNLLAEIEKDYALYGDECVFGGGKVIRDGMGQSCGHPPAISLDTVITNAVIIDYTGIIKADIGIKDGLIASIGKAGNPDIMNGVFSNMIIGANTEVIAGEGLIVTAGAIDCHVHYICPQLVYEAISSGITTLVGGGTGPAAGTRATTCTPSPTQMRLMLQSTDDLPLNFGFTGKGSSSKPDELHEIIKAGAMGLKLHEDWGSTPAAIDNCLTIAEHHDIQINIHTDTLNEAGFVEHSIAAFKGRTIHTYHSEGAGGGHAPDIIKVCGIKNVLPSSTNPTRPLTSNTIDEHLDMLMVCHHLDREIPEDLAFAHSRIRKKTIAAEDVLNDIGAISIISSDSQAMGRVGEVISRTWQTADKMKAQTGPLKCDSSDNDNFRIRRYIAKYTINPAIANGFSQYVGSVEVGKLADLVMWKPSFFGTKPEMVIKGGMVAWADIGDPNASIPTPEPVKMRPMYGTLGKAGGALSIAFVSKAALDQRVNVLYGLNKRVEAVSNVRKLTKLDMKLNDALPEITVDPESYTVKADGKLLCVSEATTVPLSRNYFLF

Point of comparison: O=[N+]([O-])c1ccc(Nc2nnc(C(O)c3ccccc3)o2)cc1 (stereo unspecified) [5-(Hydroxybenzyl)-2-(4-nitrophenyl)amino-1,3,4-oxadiazole (4e)], IC50 80.3 µM. Against it:
- Cc1ccc(Nc2nnc(C(O)c3ccccc3)o2)cc1 (stereo unspecified) [5-(Hydroxybenzyl)-2-(4-methylphenyl)amino-1,3,4-oxadiazole (4d)] — 5-fold lower, 16.1 µM
- OC(c1ccccc1)c1n[nH]c(=S)n1-c1ccc(Br)cc1 (stereo unspecified) [5-(Hydroxybenzyl)-4-(4-bromophenyl)-2H-1,2,4-triazole-3-thione (5a)] — 2.5-fold lower, 32 µM
- OC(c1ccccc1)c1n[nH]c(=S)n1-c1ccc(Cl)cc1 (stereo unspecified) [5-(Hydroxybenzyl)-4-(4-chlorophenyl)-2H-1,2,4-triazole-3-thione (5b)] — 4.2-fold lower, 18.9 µM
- Cc1ccc(-n2c(C(O)c3ccccc3)n[nH]c2=S)cc1 (stereo unspecified) [5-(Hydroxybenzyl)-4-(4-methylphenyl)-2H-1,2,4-triazole-3-thione (5d)] — 4.8-fold lower, 16.7 µM
- O=[N+]([O-])c1ccc(-n2c(C(O)c3ccccc3)n[nH]c2=S)cc1 (stereo unspecified) [5-(Hydroxybenzyl)-4-(4-nitrophenyl)-2H-1,2,4-triazole-3-thione (5e)] — 1.6-fold higher, 132 µM
